Assay results as given in patent US12497666B2, “Nucleic acid biomarker and use thereof” (Daiichi Sankyo Co., Ltd., priority 2013, dated 2025).
Read-outs that look alike come from different tables or passages of the source.

Tested on: Stage IIIb/IV NSCLC
Experimental: In both portions of the study, subjects received 150 mg of erlotinib orally once daily. […] Tumors were to be assessed every 6 weeks (±3 days) up to the first 24 weeks of the study, then every 12 weeks (+7 days) independent of treatment cycle.
All efficacy analyses were performed on the full analysis set, which includes all subjects in the randomized analysis set who received at least one dose of randomized study medication. The primary efficacy endpoint was PFS. PFS is defined as the time from the date of randomization to the earlier of the dates of the first objective documentation of radiographic disease progression or death due to any cause. A subject who was alive with no Objective documentation of (radiographic) disease progression by the data cut-off date was to be censored at the date of the last evaluable tumor assessment. The key secondary efficacy endpoint, overall survival, was defined as the time from the date of randomization to death due to any cause and was analyzed in the same manner as the primary efficacy endpoint PFS.
Kaplan-Meier curves were generated for PFS and used to calculate medians and 95% CIs for each treatment group. […] Cox's proportional hazards model.
The stratification factors included histology (Adenocarcinoma vs Non-Adenocarcinoma) and best response to prior therapy (CR/PR/SD vs PD).
Unless otherwise indicated, log-rank p-values and HRs for PFS and OS were based on the primary analysis adjusted for the stratification factors at randomization as described above.

[1] = Enrolled/Randomized set, placebo + erlotinib
[2] = Full Analysis Set, Kaplan-Meier, placebo + erlotinib
[3] = Full Analysis Set, placebo + erlotinib
[4] = HRG high (dCt<3.9), placebo + erlotinib
[5] = HRG high and EGFR wild type, placebo + erlotinib

erlotinib [Placebo + erlotinib, reference compound]
On-Study Death [1]: 13 (18.3%) subjects (%)
Primary Cause of On-Study Death: Adverse Event [1]: 5 (7.0%) subjects (%)
Primary Cause of On-Study Death: Disease Progression [1]: 8 (11.3%) subjects (%)
Primary Reason for Discontinuing Study Treatment: Death [1]: 4 (5.6%) subjects (%)
Primary Reason for Discontinuing Study Treatment: Progressive Disease (Radiographic Progression) [1]: 50 (70.4%) subjects (%)
Overall Survival, time to event, Median [2]: 7.2 months
Progression-Free Survival, time to event, Median [2]: 1.6 months
Subjects (%) with events, OS [3]: 48 (67.6%) subjects (%)
Subjects (%) with events, PFS [3]: 59 (83.1%) subjects (%)
number of subjects with the response being CP/PR [3]: 4 (5.6%) subjects (%)
OS Rate at 1 Year (%) [4]: 32.4%
OS Rate at 6 Months (%) [4]: 49.4%
OS Rate at 9 Months (%) [4]: 49.4%
PFS Rate at 8 Weeks (%) [4]: 31.3%
PFS Rate at 14 Weeks (%) [4]: 18.8%
PFS Rate at 26 Weeks (%) [4]: 0.0%
Progression-Free Survival, time to event, Median [4]: 1.4 months
Subjects (%) with events, OS [4]: 11 (61.1%) subjects (%)
Subjects (%) with events, PFS [4]: 16 (88.9%) subjects (%)
Overall Survival, time to event, Median (HRG high (dCt<3.9), preliminary, placebo + erlotinib): 5.0 months
Progression-Free Survival, time to event, Median [5]: 1.4 months
Subjects (%) with events, PFS [5]: 8 ( 88.9%) subjects (%)
objective response (CR or PR) (HRG high, placebo + erlotinib): 1 (5.6%) subjects (%)
disease control rate (HRG high, placebo plus erlotinib): 22.2%
Overall Survival, time to event, Median (HRG low, placebo + erlotinib): 8.0 months
Progression-Free Survival, time to event, Median (HRG low, placebo + erlotinib): 1.4 months
Subjects (%) with events, OS (HRG low, placebo + erlotinib): 11 (68.8%) subjects (%)
Subjects (%) with events, PFS (HRG low, placebo + erlotinib): 13 ( 81.3%) subjects (%)
